In ChEMBL document CHEMBL1201862, “PubChem BioAssay data set” (2004):
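Tested at 5 concentrations; 48 h exposure; 96-well plates; endpoints linearly interpolated, else capped at highest concentration. GI50: concentration for 50% inhibition of growth.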 Active and inactive are the calls of the source. Rule as the data show it: active = GI50 up to about 1.1 µM and inactive = higher.

How the values were obtained:
Test in all cases: NCI anticancer screen, dose series, 48 h
MOLT-4 = test system: MOLT-4
SK-MEL-28 = test system: SK-MEL-28
T47D = test system: T47D
SW-620 = test system: SW-620
COLO 205 = test system: COLO 205
IGROV-1 = test system: IGROV-1
SK-MEL-2 = test system: SK-MEL-2
MCF7 = test system: MCF7
LOX IMVI = test system: LOX IMVI
K562 = test system: K562
HL-60 = test system: HL-60
NCI-H23 = test system: NCI-H23
OVCAR-3 = test system: OVCAR-3
KM12 = test system: KM12
CCRF-CEM = test system: CCRF-CEM
MDA-MB-435 = test system: MDA-MB-435
RXF 393 = test system: RXF 393
SF-268 = test system: SF-268
HT-29 = test system: HT-29
MDA-N = test system: MDA-N

Measured: GI50

CC(=O)C1=C(O)/C(=C\c2ccco2)OC1=O
inactive: MOLT-4 > 10 µM | SK-MEL-28 > 10 µM | T47D > 10 µM | SW-620 > 10 µM | COLO 205 > 10 µM | IGROV-1 > 10 µM | SK-MEL-2 > 10 µM | MCF7 > 10 µM | LOX IMVI > 10 µM | K562 > 10 µM | HL-60 > 10 µM | NCI-H23 > 10 µM | OVCAR-3 > 10 µM | KM12 > 10 µM | CCRF-CEM > 10 µM | MDA-MB-435 > 10 µM | RXF 393 > 10 µM | SF-268 > 10 µM | HT-29 > 10 µM

O=C(c1ccccc1)c1ccc2c(c1)NC(=O)c1ccccc1SSc1ccccc1C(=O)N2
inactive: MOLT-4 > 100 µM | SK-MEL-28 > 100 µM | T47D > 100 µM | SW-620 > 100 µM | COLO 205 > 100 µM | IGROV-1 > 100 µM | SK-MEL-2 > 100 µM | MDA-N > 100 µM | LOX IMVI > 100 µM | K562 > 100 µM | HL-60 > 100 µM | NCI-H23 > 100 µM | OVCAR-3 > 100 µM | KM12 > 100 µM | CCRF-CEM > 100 µM | MDA-MB-435 > 100 µM | RXF 393 > 100 µM | SF-268 > 100 µM | HT-29 > 100 µM

O=C1C=C2CCC[C@H]3OC(=O)C[C@@]23CC1
inactive: MOLT-4 > 100 µM | SK-MEL-28 > 100 µM | T47D > 100 µM | SW-620 > 100 µM | COLO 205 > 100 µM | IGROV-1 > 100 µM | SK-MEL-2 > 100 µM | MDA-N > 100 µM | LOX IMVI > 100 µM | K562 > 100 µM | HL-60 > 100 µM | NCI-H23 > 100 µM | OVCAR-3 > 100 µM | KM12 > 100 µM | MDA-MB-435 > 100 µM | RXF 393 > 100 µM | SF-268 > 100 µM | HT-29 > 100 µM

N#CS/C(Cl)=C(/C(Cl)=C(Cl)Cl)[N+](=O)[O-]
inactive: MOLT-4 36.3 µM | SK-MEL-28 29.4 µM | T47D 37.2 µM | SW-620 29.7 µM | COLO 205 30.5 µM | IGROV-1 37.5 µM | MCF7 29.9 µM | MDA-N 34.6 µM | LOX IMVI 19.6 µM | K562 40.7 µM | HL-60 29.1 µM | NCI-H23 33.3 µM | OVCAR-3 21.9 µM | KM12 47.6 µM | CCRF-CEM 33 µM | RXF 393 47.3 µM | SF-268 38 µM | HT-29 34.5 µM
